In test [1] the target is T1, H6XcNAGS-K (Xanthomonas campestris, UniProt A0A0H2X8L7).
T1 construct: gene XC_1873; full length, E. coli BL21(DE3), pET15b, N-terminal polyhistidine tag and thrombin site kept
T1 sequence (A0A0H2X8L7 1-447): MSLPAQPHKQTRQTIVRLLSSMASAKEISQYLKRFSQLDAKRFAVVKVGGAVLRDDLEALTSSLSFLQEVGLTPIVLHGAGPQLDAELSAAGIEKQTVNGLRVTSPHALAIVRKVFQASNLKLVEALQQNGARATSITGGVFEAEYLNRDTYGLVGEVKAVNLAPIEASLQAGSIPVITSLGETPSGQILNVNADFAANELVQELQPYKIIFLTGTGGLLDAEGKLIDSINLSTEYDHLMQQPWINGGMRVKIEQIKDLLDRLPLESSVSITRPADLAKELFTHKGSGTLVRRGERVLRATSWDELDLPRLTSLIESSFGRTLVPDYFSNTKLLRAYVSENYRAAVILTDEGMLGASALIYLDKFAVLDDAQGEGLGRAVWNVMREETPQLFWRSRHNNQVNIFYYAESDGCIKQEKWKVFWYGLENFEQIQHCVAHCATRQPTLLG
The test can be described thus: synthase activity, LC-MS of N-acetylglutamate. It counts as biochemical. Conditions: 50 mM L-glutamate, 2 mM AcCoA, pH 9.0, 30 °C.

The target in test [2] is T1, H6XcNAGS-K. The test can be described thus: kinase activity, colorimetric hydroxamate assay. It counts as biochemical. Conditions: 100 mM N-acetylglutamate, 20 mM ATP, 40 mM MgCl2, 400 mM hydroxylamine, pH 6.0, 30 °C.

The structures appear in SMILES notation.

Take `N=C(N)NCCC[C@H](N)C(=O)O` [L-arginine]: the half-inhibition entry is “presence of an affinity tag did not affect the inhibition of the synthase activity of XcNAGS-K” in test [1]; “half-inhibition of the kinase activities of XcNAGS-K with and without polyhistidine differed two-fold” in test [2].

Source of the values: PMC1865377, “A novel bifunctional N-acetylglutamate synthase-kinase from Xanthomonas campestris that is closely related to mammalian N-acetylglutamate synthase” (BMC Biochemistry, 2007).
